Like-named read-outs stand apart in the source and are kept apart here.

This is an account of results in patent publication US10758534B2 (Vertex Pharmaceuticals Incorporated, priority 2014, dated 2020).

The target of the experiment is T1, F508del (Homo sapiens, UniProt P13569, DEL508-508).
T1 construct: expressed in transfected cells
The experiment in a line: Protocol 2: FRET membrane potential optical assay (VIPR), identification of correction compounds. In kind it is cell-based. Summed up: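 Corrector readout: membrane-potential FRET (CC2-DMPE donor, DiSBAC2(3) acceptor) on VIPR II after Cl⁻-free gluconate bath with 10 μM forskolin and 20 μM genistein. Before this, F508del-expressing NIH3T3 cells were exposed to test compound for 16 h at 37 °C without serum; 27 °C incubation served as temperature-correction control.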

Setting [1] is: Table 3, compounds of Table 1 as modulators of CFTR activity, protocol not stated.
Where [2] appears, read: F508del CFTR modulator activity, compounds of Table 1, read-out: EC30.

T1 sequence (P13569 with tags, fused parts or gaps DEL508-508): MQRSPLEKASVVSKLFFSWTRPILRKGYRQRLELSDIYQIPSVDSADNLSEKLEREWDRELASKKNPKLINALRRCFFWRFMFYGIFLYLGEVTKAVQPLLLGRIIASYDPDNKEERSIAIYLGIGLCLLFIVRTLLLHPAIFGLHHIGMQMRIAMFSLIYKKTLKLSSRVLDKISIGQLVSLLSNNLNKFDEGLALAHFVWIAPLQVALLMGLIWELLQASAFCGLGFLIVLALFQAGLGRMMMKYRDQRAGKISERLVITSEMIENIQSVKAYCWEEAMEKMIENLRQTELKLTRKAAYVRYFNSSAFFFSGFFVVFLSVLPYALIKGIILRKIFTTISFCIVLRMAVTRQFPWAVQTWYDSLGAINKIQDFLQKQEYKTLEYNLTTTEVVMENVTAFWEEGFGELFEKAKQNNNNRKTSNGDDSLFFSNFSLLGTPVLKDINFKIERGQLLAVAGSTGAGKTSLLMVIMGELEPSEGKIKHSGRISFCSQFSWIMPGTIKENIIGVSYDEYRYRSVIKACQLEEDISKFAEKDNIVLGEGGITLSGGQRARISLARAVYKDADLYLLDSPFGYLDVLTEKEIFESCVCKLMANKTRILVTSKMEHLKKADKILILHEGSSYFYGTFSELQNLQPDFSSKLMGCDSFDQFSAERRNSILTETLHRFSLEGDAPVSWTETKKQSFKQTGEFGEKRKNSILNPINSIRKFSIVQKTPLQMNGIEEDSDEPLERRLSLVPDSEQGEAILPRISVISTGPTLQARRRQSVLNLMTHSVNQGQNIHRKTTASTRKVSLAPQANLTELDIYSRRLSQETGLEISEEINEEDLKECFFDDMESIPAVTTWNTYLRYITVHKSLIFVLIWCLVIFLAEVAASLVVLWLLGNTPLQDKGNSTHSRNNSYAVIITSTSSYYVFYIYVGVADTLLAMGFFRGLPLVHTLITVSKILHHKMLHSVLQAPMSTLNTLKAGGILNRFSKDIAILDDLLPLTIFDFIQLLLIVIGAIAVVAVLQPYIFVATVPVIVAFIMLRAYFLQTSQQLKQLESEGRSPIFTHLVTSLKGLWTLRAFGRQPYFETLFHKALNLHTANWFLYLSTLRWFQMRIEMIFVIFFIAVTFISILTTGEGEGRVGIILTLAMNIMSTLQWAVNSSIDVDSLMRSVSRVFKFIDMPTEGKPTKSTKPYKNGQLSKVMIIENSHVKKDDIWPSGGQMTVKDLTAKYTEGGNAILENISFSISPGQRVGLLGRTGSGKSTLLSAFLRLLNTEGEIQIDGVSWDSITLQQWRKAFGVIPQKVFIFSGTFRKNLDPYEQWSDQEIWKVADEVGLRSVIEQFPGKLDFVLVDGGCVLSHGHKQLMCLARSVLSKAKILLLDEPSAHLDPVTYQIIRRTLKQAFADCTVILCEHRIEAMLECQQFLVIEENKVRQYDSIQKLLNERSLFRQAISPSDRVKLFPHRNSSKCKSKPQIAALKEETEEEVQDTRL

One may read the EC30 as the point of the concentration-response curve where the effect stands at 30%. For `Cc1ccc(-c2nc(C(C)(C)C)ccc2C(=O)NS(=O)(=O)c2ccc(N)cc2)cc1` [Compound 297, N-(4-aminophenyl)sulfonyl-6-tert-butyl-2-(p-tolyl)pyridine-3-carboxamide], the 30% effect concentration (EC30) result under setting [1] was “++ (“++” means between 3 uM and 10 uM)”.

As for `Cc1ccc(-c2ccc(C(=O)NS(=O)(=O)c3cccc(N)n3)c(N3C[C@@H](C)CC3(C)C)n2)c(O)c1` [Compound 2043, N-[(6-amino-2-pyridyl)sulfonyl]-6-(2-hydroxy-4-methyl-phenyl)-2-[(4S)-2,2,4-trimethylpyrrolidin-1-yl]pyridine-3-carboxamide], the EC30 under setting [2] is below 3000 nM.

As for `CC(C)COc1cc(F)cc(-c2ccc(C(=O)NS(=O)(=O)c3cccc(N)n3)c(N3CCC[C@H](c4ccccc4)C3)n2)c1` [Compound 651, N-[(6-amino-2-pyridyl)sulfonyl]-6-(3-fluoro-5-isobutoxy-phenyl)-2-[(3R)-3-phenyl-1-piperidyl]pyridine-3-carboxamide], the EC30 result under setting [1] is reported as “+++ (“+++” means <3 uM)”.

As to `Cc1cccc(C)c1Oc1nc(-c2cc(F)cc(OCC(C)C)c2)ccc1C(=O)NS(=O)(=O)c1cccc(N)n1` [Compound 639, N-[(6-amino-2-pyridyl)sulfonyl]-2-(2,6-dimethylphenoxy)-6-(3-fluoro-5-isobutoxy-phenyl)pyridine-3-carboxamide], under setting [1], the EC30 result is “+++ (“+++” means <3 uM)”.

For the compound `CC1CN(c2ncccc2C(=O)NS(=O)(=O)c2cccc(N3CC4CCCC4C3)n2)C(C)(C)C1` (centres unmarked) [Compound 2340, N—[[6-(3,3a,4,5,6,6a-hexahydro-1H-cyclopenta[c]pyrrol-2-yl)-2-pyridyl]sulfonyl]-2-(2,2,4-trimethylpyrrolidin-1-yl)pyridine-3-carboxamide], the 30% effect concentration (EC30) under setting [2] is below 3000 nM.

As for `Cc1cc(C)c(Oc2nc(-c3c[nH]nc3C(F)(F)F)ccc2C(=O)NS(=O)(=O)c2cccc(N)n2)c(C)c1` [Compound 582, N-[(6-amino-2-pyridyl)sulfonyl]-6-[3-(trifluoromethyl)-1H-pyrazol-4-yl]-2-(2,4,6-trimethylphenoxy)pyridine-3-carboxamide], the EC30 entry under setting [1] was “++ (“++” means between 3 uM and 10 uM)”.

On to `CC(C)c1ccc(-c2ccc(C(=O)NS(=O)(=O)c3ccc[nH]c3=O)c(N3C[C@@H](C)CC3(C)C)n2)cc1` [Compound 2483, 6-(4-isopropylphenyl)-N-[(2-oxo-1H-pyridin-3-yl)sulfonyl]-2-[(4S)-2,2,4-trimethylpyrrolidin-1-yl]pyridine-3-carboxamide], for which the EC30 under setting [2] is below 3000 nM.

For the compound `CC(C)Oc1ccc(-c2ccc(C(=O)NS(=O)(=O)c3cccc(N)n3)c(N3CCCCC3c3ccccc3)n2)cn1` (centres unmarked) [Compound 731, N-[(6-amino-2-pyridyl)sulfonyl]-6-(6-isopropoxy-3-pyridyl)-2-(2-phenyl-1-piperidyl)pyridine-3-carboxamide], the EC30 entry under setting [1] was “+++ (“+++” means <3 uM)”.

With `C[C@@H]1CN(c2nc(-c3ccc4ccccc4c3)ccc2C(=O)NS(=O)(=O)c2cccnc2N)C(C)(C)C1` [Compound 2280, N-[(2-amino-3-pyridyl)sulfonyl]-6-(2-naphthyl)-2-[(4S)-2,2,4-trimethylpyrrolidin-1-yl]pyridine-3-carboxamide], under setting [2], the EC30 is below 3000 nM.

In the case of `CC1CN(c2nc(-n3ccc(OCC(C)(C)C)n3)ccc2C(=O)NS(=O)(=O)c2cccnc2N)C2(CCC2)C1` (single isomer, unassigned) [Compound 2358, N-[(2-amino-3-pyridyl)sulfonyl]-6-[3-(2,2-dimethylpropoxy)pyrazol-1-yl]-2-[6-methyl-8-azaspiro[3.4]octan-8-yl]pyridine-3-carboxamide], under setting [2], the EC30 is below 3000 nM.

Consider `Cc1cc(C)c(Oc2nc(C(C)(C)C)ccc2C(=O)NS(=O)(=O)c2cccc(N(C)C)c2)c(C)c1` [Compound 311, 6-tert-butyl-N-[3-(dimethylamino)phenyl]sulfonyl-2-(2,4,6-trimethylphenoxy)pyridine-3-carboxamide], for which the EC30 entry under setting [1] was “+++ (“+++” means <3 uM)”.

Regarding `Cc1cc(C)c(Oc2nc(C(C)(C)C)ccc2C(=O)NS(=O)(=O)c2cc[nH]c(=O)c2)c(C)c1` [Compound 113, 6-tert-butyl-N-[(2-oxo-1H-pyridin-4-yl)sulfonyl]-2-(2,4,6-trimethylphenoxy)pyridine-3-carboxamide], the EC30 result under setting [1] was “++ (“++” means between 3 uM and 10 uM)”.

In the case of `Cc1cc(C)c(Cn2c(C(=O)NS(=O)(=O)c3cc(N)ccn3)cc3ccccc32)c(C)c1` [Compound 23, N-[(4-amino-2-pyridyl)sulfonyl]-1-[(2,4,6-trimethylphenyl)methyl]indole-2-carboxamide], the 30% effect concentration (EC30) entry under setting [1] is “++ (“++” means between 3 uM and 10 uM)”.

Regarding `CC(C)COc1cc(F)cc(-c2ccc(C(=O)NS(=O)(=O)c3ccn[nH]3)c(NCC3CC(F)(F)C3)n2)c1` [Compound 393, 2-[(3,3-difluorocyclobutyl)methylamino]-6-(3-fluoro-5-isobutoxy-phenyl)-N-(1H-pyrazol-5-ylsulfonyl)pyridine-3-carboxamide], the EC30 entry under setting [1] is “++ (“++” means between 3 uM and 10 uM)”.

With `CC1(C)C(Cc2ccccc2)CCN1c1ncccc1C(=O)NS(=O)(=O)c1cccc(N)n1` (centres unmarked) [Compound 2275, N-[(6-amino-2-pyridyl)sulfonyl]-2-(3-benzyl-2,2-dimethyl-pyrrolidin-1-yl)pyridine-3-carboxamide], the concentration for an effect of 30% (EC30) under setting [2] was 3000 to 10000 nM.

For the compound `Cc1ccc(-c2nc(C(C)(C)C)ccc2C(=O)NS(=O)(=O)c2cccc(N)c2)c(C)c1` [Compound 5, N-(3-aminophenyl)sulfonyl-6-tert-butyl-2-(2,4-dimethylphenyl)pyridine-3-carboxamide], under setting [1], the EC30 result was “++ (“++” means between 3 uM and 10 uM)”.

In the case of `C[C@@H]1CN(c2nc(-c3cc(F)cc(F)c3)ccc2C(=O)NS(=O)(=O)c2cccnc2N)C(C)(C)C1` [Compound 2272, N-[(2-amino-3-pyridyl)sulfonyl]-6-(3,5-difluorophenyl)-2-[(4S)-2,2,4-trimethylpyrrolidin-1-yl]pyridine-3-carboxamide], the EC30 under setting [2] is below 3000 nM.

Take `CCC(CC)Oc1cccc(-c2ccc(C(=O)NS(=O)(=O)c3cccc(N)n3)c(N3CC(C)CC3(C)C)n2)n1` (centres unmarked) [Compound 580, N-[(6-amino-2-pyridyl)sulfonyl]-6-[6-(1-ethylpropoxy)-2-pyridyl]-2-(2,2,4-trimethylpyrrolidin-1-yl)pyridine-3-carboxamide]: the EC30 entry under setting [1] was “+++ (“+++” means <3 uM)”.

With `CC(C)COc1cc(F)cc(-c2ccc(C(=O)NS(=O)(=O)N3C[C@H]4C[C@@H]3CO4)c(N3C[C@@H](C)CC3(C)C)n2)c1` [Compound 2347, 6-(3-fluoro-5-isobutoxy-phenyl)-N—[[(1R,4R)-2-oxa-5-azabicyclo[2.2.1]heptan-5-yl]sulfonyl]-2-[(4S)-2,2,4-trimethylpyrrolidin-1-yl]pyridine-3-carboxamide], the 30% effect concentration (EC30) under setting [2] was below 3000 nM.

On to `CC1CN(c2ncccc2C(=O)NS(=O)(=O)c2cccc(Nc3ccccc3C#N)n2)C(C)(C)C1` (centres unmarked) [Compound 2659, N—[[6-(2-cyanoanilino)-2-pyridyl]sulfonyl]-2-(2,2,4-trimethylpyrrolidin-1-yl)pyridine-3-carboxamide], for which, under setting [2], the EC30 was 3000 to 10000 nM.

As to `CC1CN(c2ncccc2C(=O)NS(=O)(=O)c2cccc(NC3CC3)n2)C(C)(C)C1` (centres unmarked) [Compound 2574, N—[[6-(cyclopropylamino)-2-pyridyl]sulfonyl]-2-(2,2,4-trimethylpyrrolidin-1-yl)pyridine-3-carboxamide], the EC30 under setting [2] was 3000 to 10000 nM.

With `CC(C)COc1cc(F)cc(-c2ccc(C(=O)NS(=O)(=O)c3cccc(N)n3)c(N3CC(C)CC(C)(C)C3)n2)c1` (centres unmarked) [Compound 560, N-[(6-amino-2-pyridyl)sulfonyl]-6-(3-fluoro-5-isobutoxy-phenyl)-2-(3,3,5-trimethyl-1-piperidyl)pyridine-3-carboxamide], the 30% effect concentration (EC30) result under setting [1] is reported as “+++ (“+++” means <3 uM)”.

On to `CC(C)COc1cccc(-c2ccc(C(=O)NS(=O)(=O)c3ccc[nH]c3=O)c(N3[C@H](C)CC[C@@H]3C)n2)c1` [Compound 511, 2-[(2S,5R)-2,5-dimethylpyrrolidin-1-yl]-6-(3-isobutoxyphenyl)-N-[(2-oxo-1H-pyridin-3-yl)sulfonyl]pyridine-3-carboxamide], for which, under setting [1], the EC30 result is given as “+++ (“+++” means <3 uM)”.

With `Cc1ccc(-c2nc(C(C)(C)C)ccc2C(=O)NS(=O)(=O)c2ccn[nH]2)cc1` [Compound 632, 6-tert-butyl-2-(p-tolyl)-N-(1H-pyrazol-5-ylsulfonyl)pyridine-3-carboxamide], the EC30 entry under setting [1] is “++ (“++” means between 3 uM and 10 uM)”.

For `CC1CCN(c2nc(-c3ccc(OC(C)C)nc3)ccc2C(=O)NS(=O)(=O)c2ccn[nH]2)CC1` [Compound 534, 6-(6-isopropoxy-3-pyridyl)-2-(4-methyl-1-piperidyl)-N-(1H-pyrazol-5-ylsulfonyl)pyridine-3-carboxamide], the EC30 entry under setting [1] was “++ (“++” means between 3 uM and 10 uM)”.

As to `CC1CN(c2ncccc2C(=O)NS(=O)(=O)c2cccc(NCC(F)F)n2)C(C)(C)C1` (centres unmarked) [Compound 2350, N—[[6-(2,2-difluoroethylamino)-2-pyridyl]sulfonyl]-2-(2,2,4-trimethylpyrrolidin-1-yl)pyridine-3-carboxamide], the 30% effect concentration (EC30) under setting [2] fell in the range of 3000 to 10000 nM.

`COc1ccccc1-c1cc(C(=O)NS(=O)(=O)c2cccc(N)c2)n(C(C)c2ccccc2)n1` (centres unmarked) [Compound 40, N-(3-aminophenyl)sulfonyl-5-(2-methoxyphenyl)-2-(1-phenylethyl)pyrazole-3-carboxamide]: the EC30 result under setting [1] is “+++ (“+++” means <3 uM)”.

In the case of `CC(C)COc1ccccc1-c1ccc(C(=O)NS(=O)(=O)c2ccc[nH]c2=O)c(N2C[C@@H](C)CC2(C)C)n1` [Compound 2629, 6-(2-isobutoxyphenyl)-N-[(2-oxo-1H-pyridin-3-yl)sulfonyl]-2-[(4S)-2,2,4-trimethylpyrrolidin-1-yl]pyridine-3-carboxamide], the EC30 under setting [2] is below 3000 nM.

Take `Cc1ccc(-c2nc(C(C)(C)C)ccc2C(=O)NS(=O)(=O)c2ccccc2C#N)cc1` [Compound 623, 6-tert-butyl-N-(2-cyanophenyl)sulfonyl-2-(p-tolyl)pyridine-3-carboxamide]: the EC30 result under setting [1] was “++ (“++” means between 3 uM and 10 uM)”.
